# From patent publication US20070042967A1, “Proteaseome inhibitors for the treatment of herpesviridae infected individuals” (priority 2002, published 2007)
# Where a SMILES comes first, the peptide text is derived from it. The star is where a group is joined. Cbz = O=C(OCc1ccccc1)*; OtBu = CC(C)(C)O*
# Tests used:
# ICAM-1 (CD54) = experiment: Surface expression of ICAM-1 (CD54) on HELF by flow cytometric analysis; format: cell-based, human; details: GCV for comparison; AD169 m.o.i.=1
# Protocol: Next, we wondered whether MG132 is able to reduce the immune modulatory activity of HCMV. Therefore we measured the levels of extracellular IL-6, IL-8, and RANTES in the supernatants of mock-infected and AD-169-infected HELF (m.o.i. =1) following culture in the presence or absence of increasing amounts of MG132. In parallel, surface expression of ICAM-1 (CD54) was measured by flow cytometric analysis. As expected infection of HELF with AD 169 increased secretion of IL-6, EL-8 and RANTES (data not shown) as well as surface expression of ICAM-1 over time (FIGS. 14A and B). […]
# (§1) Cell culture fluids were tested for RANTES using the ELISA KIT from R&D System, Germany, following the manufacturers instructions. […] Surface CD54 amounts were analysed using a FACScalibur analyser and cellquest software (Becton Dickinson, Germany). Data were calculated as A mean fluorescence intensities of CD54 and isotype control antibodies (=specific mean fluorescence intensity, MFI).
# MG132-dependent suppression of HCMV-induced ICAM-1 surface expression Uninfected and AD169-infected HELF (m.o.i.=1) were grown in the absence or presence of MG132 or GCV and harvested 24 h (A) or 48 h (B) p.i. for surface ICAM-1 measurement by flowcytometric analysis. The specific MFI of uninfected and untreated control HELF was calculated as 100%. […]
# [1] = system: HCMV IE1/2 enhancer/promoter; experiment: TNFα stimulation / basal activity of the HCMV IE1/2 enhancer/promoter, CAT reporter (pRR55) in HL-60 cells; format: cell-based, HCMV strain Ad169; details: for influence on TNFα stimulation of the IE1/2 enhancer/promoter (in words): HL-60, HCMV AD169 promoter
# Protocol: As a model for undifferentiated monocyte/granulocyte progenitor cells HL-60, cells (ATCC No. CCL 240) expressing high levels of CD34+ but low levels of typical differentiation antigens like CD11a-c and CD14 on their surface were used. Furthermore, HL-60 cells have retained the ability, to differentiate into granulocytes and monocytes depending on the stimulus. HL-60 cells were grown in RPMI 1640 medium supplemented with 10% fetal calf serum (both certified endotoxin-free, Biochrome, Germany) at 37° C. in a 5% humidified atmosphere. […] The cells were grown up to 1×10^6 cells per ml. HL-60 cells were transiently transfected with the plasmid pRR55 containing the native HCMV strain Ad169 IE1/2 enhancer/promoter region between nucleotides […] and +52 relative to the transcription start site upstream of the chloramphenicol acetyl transferase (CAT) reporter gene (Fickenscher et al., 1989). Plasmid DNA was prepared using the endofree Maxi Kit (QUIAGEN, Germany or Machery & Nagel, Germany) and stored in aliquots at −20° C. Transient transfection was performed using the DEAE transfection protocol (Stein et al., 1993). Per transfection reaction 5×10^5 cells were washed once with FCS-free medium and then resuspendend in 250 μl transfection buffer containing 1×TBS (24 mM Tris-HCl, pH 7.4, 137 mM NaCl, 5 mM KCl, 0.7 mM CaCl2, 0.5 mM MgCl2, 0.6 mM Na2HPO4), 2.5 μg plasmid DNA (1 μg/μl ) and 5 mg/ml DEAE dextran (Pharmacia-Amersham, Germany). To avoid differences in transfection efficiency, cells for parallel probes were transfected in one reaction and splitted after transfection. Transfection occurred for 1 h at 37° C. After that the cells were washed once with FCS-free RPMI 1640 medium and resuspended in medium containing 10% FCS at a concentration of 5×10^5 cells/5 ml. MG-132 (Calbiochemie, Germany) was dissolved in ethanol (5 μg/μl) and stored in aliqotes at −20 ° C. MG-132 was added into the medium at time zero after transfection and 1 h before TNFα (5 ng/ml, human recombinant TNFα; PAN, Germany, stored in aliquots containing 10 μg/μl at −80° C.). The cells were harvested 48 h after transfection, washed once with PBS and resuspended in 70 μl CAT buffer 1 (0.25 M Tris/HCl, pH 7.8, 0.5 mM EDTA). After 10 min of incubation on ice, cell extracts were prepared by repeated frozen/thawing of the cells (routinely 5 times), 10 min incubation at 65 ° C. to inactivate isoenzymes. Cell debris was removed by centrifugation at 12000 rpm for 10 min in an Eppendorf centrifuge. Cell extracts were measured for their protein concentrations using the method of Bradford (Bradford, 1976) and Bradford reagent (Sigma, Germany). Equal quantities of protein were used in the CAT-assay as described by Gorman et al., 1982. 20 μl lysates were incubated with [^14C]chloramphenicol (Hartman Analytic, Germany) and acetyl-CoA (Sigma, Germany) at 37° C. Reaction was stopped by extraction with ethylacetat (Merck, Germany). The acetylated products were quantified after separation by thin-layer chromatography using a thin layer scintillator. […] In the presence of 0.1 μg/ml MG-132 reduced TNFα stimulation by 50% (FIG. 1).
# The reporter gene plasmid pRR55 contains the whole HCMV IE1/2 enhancer/promoter region between nucleotides +52 and −637 with respect to the IE1 transcriptions start site, upstream of the chloramphenicol acetyltransferase (CAT) gene [Fickenscher H, Stamminger T, Riiger R & Fleckenstein B. The role of a repetetive palindrormic sequence element in the human cytomegalovirus major immediate early enhancer. J Gen Virol 1989; 70:107-123.]. The plasmid was kindly provided by T. Stamminger (Eriangen, Germany). For transient transfection of HL-60 cells we used the DEAE dextran method as described earlier [Stein J, Volk H D, Liebenthal C, Kruger D H & Prosch S. Tumor necrosis factor alpha stimulates the activity of the human cytomegalovirus major immediate early enhancer/promoter in immature monocytic cells. J Gen Virol 1993; 74:2333-2338]. […]
# HELF = experiment: Toxicity for HELFs; format: cell-based, human; details: 0.2 μg/ml
# Protocol: (§2) Granulocyte/monocyte progenitor like HL-60 cells (ACC CCL 240) were grown in RPMI 1640 medium supplemented with 10% foetal calf serum (FCS, both from Biochrom, Germany and certified to be endotoxin free). Permissive human embryonal lung fibroblasts (HELF) were grown as monolayer in Dulbecco's modified Eagle's medium (BioWhittaker Europa, Belgium) containing 2.0% FCS. Virus stocks of HCMV strain AD169. of laboratory-derived ganciclovir (GCV)-resistant viruses XbaF 4-3-1 and 1117′ 3-1-2 (both are kindly provided from K. K. Biron, Burroughs Wellcome Colo.), HSV 1, strain K, and HSV 2, strain DG (both are patients isolates from the strain collection of this institute) were prepared from the supernatant of infected cell cultures and stored in liquid nitrogen. For standard plaque reduction assays as well as for experiments with immunoblot analysis HELF were seeded into 25 cm^2 cell culture flasks. For preparation of cytosolic and nuclear extracts cells were seeded into 100 cm^2 culture flasks. Generally, confluent monolayers were infected at an multiplicity of infection (m.o.i.) of 0.0002 for standard plaque reduction assay and a m.o.i. of 1 for immunoblot analysis, for preparation of cytosolic and nuclear extracts as well as for measurement of cytokine, chemokine and adhesion molecules in cell culture supernatant. […]
# IL-8 = experiment: Extracellular IL-8 in supernatants of AD169-infected HELF (ELISA); format: cell-based, human; details: increasing amounts; data not shown
# Protocol: (§3) Next, we wondered whether MG132 is able to reduce the immune modulatory activity of HCMV. Therefore we measured the levels of extracellular IL-6, IL-8, and RANTES in the supernatants of mock-infected and AD-169-infected HELF (m.o.i. =1) following culture in the presence or absence of increasing amounts of MG132. In parallel, surface expression of ICAM-1 (CD54) was measured by flow cytometric analysis. As expected infection of HELF with AD 169 increased secretion of IL-6, EL-8 and RANTES (data not shown) as well as surface expression of ICAM-1 over time (FIGS. 14A and B). While virus-induced secretion of IL-6, IL-8, and RANTES was not inhibited by the proteasome inhibitor, but, in some experiments even increased (data not shown), virus-induced surface expression of ICAM-1 was prevented (FIG. 14). […] For comparison, GCV had no influence on virus-induced ICAM-1 expression, but rather sustained its density on the cell surface (FIG. 14, last columns).
# (§4) For measurement of IL-6 and EL-8 cell culture supernatants were collected from mock-infected and AD169-infected HELF cultivated in the presence or absence of MG132 or GCV (m.o.i.=1) immediately after adsorption of the virus (day 0) as well as at day 1, 2, 3 and 5 p.i. and tested for IL-6 and EL-8 by Immulite™ semiautomatic. ELISA analysis as described by the manufacturer (DPC Biermann, Germany).
# RANTES = experiment: Extracellular RANTES in supernatants of AD169-infected HELF (ELISA); format: cell-based, human; details: increasing amounts; data not shown
# Protocol: as §3, §1
# HL-60 cells = experiment: Cytotoxic effects on HL-60 cells; format: cell-based; details: at 0.5 and 0.1 μg/ml
# Protocol: as §2
# HCMV AD169 = HCMV AD169 replication in human embryonal lung fibroblasts (CPE / IE staining, day 5 p.i.); format: cell-based, human cytomegalovirus
# Excerpt: Human embryonal lung fibroblasts (HELF), one of the target cells of HCMV in vivo, are fully permissive for HCMV replication in vitro. For infection experiments the laboratory adapted strain AD169 was propagated on HELFs. Virus stocks prepared from the overlay of infected cells showing 100% cytopathic effect (CPE) by ultra centrifugation were stored in liquid N2. Confluent HELF monolayer in 50 cm^2 flasks were infected with AD169 at a multiplicity of infection (M.O.I.) of 0.01. Adsorption of the virus was allowed for 1 hour at 37° C. After that the monolayer was overlayed with MEM containing 4.5% FCS. Medium was free of or substituted with the proteasome inhibitor at the indicated concentration. Virus cultures were cultivated for 5 days without changing the medium. On day five p.i. virus replication, was quantified by the number of CPE visible in inverse light microscope. For quantification cells were stained with an HCMV-specific antibody recognising the IE proteins IE1 and IE2 (clone E13, Harlan Sera-tab, Loughborough, GB, 1:5000), goat anti-mouse HRP-conjugated IgG (1:4000; Boehringer Mannheim, Indianapolis, Ind., USA) as secondary antibody and the AEC staining kit (Sigma, Germany) which gives a reed nuclear staining of infected cells.
# Granulocyte/monocyte progenitor like HL-60 cells (ACC CCL 240) were grown in RPMI 1640 medium supplemented with 10% foetal calf serum (FCS, both from Biochrom, Germany and certified to be endotoxin free). Permissive human embryonal lung fibroblasts (HELF) were grown as monolayer in Dulbecco's modified Eagle's medium (BioWhittaker Europa, Belgium) containing 2.0% FCS. Virus stocks of HCMV strain AD169. of laboratory-derived ganciclovir (GCV)-resistant viruses XbaF 4-3-1 and 1117′ 3-1-2 (both are kindly provided from K. K. Biron, Burroughs Wellcome Colo.), HSV 1, strain K, and HSV 2, strain DG (both are patients isolates from the strain collection of this institute) were prepared from the supernatant of infected cell cultures and stored in liquid nitrogen. […]
# HSV1 strain K = experiment: HSV1 replication in HELF (CPE count); format: cell-based, Herpes Simplex Type 1; details: 0.2 to 0.01 μg/ml (0.42 to 0.021 μM)
# Protocol: (§5) Confluente HELF monolayers in 24 well tissue culture plates were infected with HSV1 strain K or HSV2 at a M.O.I. of 0.001. Virus adsorption was allowed for 1 h at 37° C. After removing the viral inoculate, cells were overlayed with MEM/E, 1% Methocel and incubated for two days at 37° C. in a 5% CO2 atmosphere. MG-132 at the indicated concentrations was added into the medium after adsorption. CPEs were quantified by light microscopy. MG132 had no effect on HSV1 (FIG. 6) and HSV2 (not shown) replication in HELF.
# HSV2 = HSV2 replication in HELF (CPE count); format: cell-based, Herpes Simplex Type 2; details: not shown
# Protocol: as §5
# IL-6 = experiment: Extracellular IL-6 in supernatants of AD169-infected HELF (ELISA); format: cell-based, human; details: increasing amounts; data not shown
# Protocol: as §3, §4
compound,measurement,setting,value
"Nc1nc(O)c2ncn(COC(CO)CO)c2n1 [GCV, Ganciclovir]",influence on virus-induced ICAM-1 expression,ICAM-1 (CD54),no influence
Cbz-IE(OtBu)AL-aldehyde [PS-1],decrease of TNFα stimulation,"[1]; 0.5 to 0.1 μg/ml (0.81 to 0.16 μM), HL-60",about 60%
same,influence on TNFα stimulation of the IE1/2 enhancer/promoter (in words),[1],reduce TNFα stimulation in a concentration-dependent manner
"CC(C)C[C@@H](C=O)NC(=O)[C@H](CC(C)C)NC(=O)[C@H](CC(C)C)NC(=O)OCc1ccccc1 [MG-132, N-carbobenzoxy-L-leucinyl-L-leucinyl-L-leucinal] (Cbz-Leu-Leu-Leu-aldehyde)",toxicity for HELFs,HELF,non-toxic
same,virus-induced secretion of IL-8,IL-8,not inhibited
same,virus-induced secretion of RANTES,RANTES,not inhibited
same,cytotoxic effects on HL-60 cells,HL-60 cells,no cytotoxic effects
same,effect on virus replication,"HCMV AD169; 0.01 μg/ml (0.016 μM), AD169, HELF",no effect
same,number of IE-positive cells per foci compared with the untreated control,HCMV AD169; 0.1 μg/ml (0.21 μM),about 50%
same,number of virus-infected (IE-positive) cells per focus,"HCMV AD169; 0.2 μg/ml (0.42 μM), untreated 50",7 cells
same,effect on HSV1 replication in HELF,HSV1 strain K,no effect
same,reduction of TNFα stimulation,"[1]; 0.1 μg/ml, HL-60, TNFα 5 ng/ml",50%
same,decrease of TNFa-mediated stimulation,"[1]; 0.8 μM, HL-60",about 80%
same,"concentrations that inhibit basic, TNFα-independent activity of the IE1/2 enhancer/promoter","[1]; HL-60, without TNFα",above 0.5 μg/ml
same,effect on HSV2 replication in HELF,HSV2,no effect
same,virus-induced secretion of IL-6,IL-6,not inhibited
N-carbobenzoxy-L-leucinyl-L-leucinyl-L-leucinal [MG-132],influence on TNFα stimulation of the IE1/2 enhancer/promoter (in words),[1],decreased TNFα stimulation of the IE1/2 enhancer/promoter in a concentration-dependent manner
"CC(C)C[C@H](NC(=O)OCc1ccccc1)C(=O)N[C@@H](CC(C)C)C(=O)N[C@H](C=O)Cc1ccccc1 [PS-2, Z-Leu-Leu-Phe-CHO] (Cbz-Leu-Leu-Phe-aldehyde)",influence on TNFα stimulation of the IE1/2 enhancer/promoter (in words),[1],reduce TNFα stimulation in a concentration-dependent manner
